Experimental findings from patent US20170038384A1, “TREATMENT OF TUMORS EXPRESSING MUTANT P53” (SLOAN-KETTERING INSTITUTE FOR CANCER RESEARCH, priority 2014, published 2017) are described below.

The target in data set [1] is T1, PDGFRb (Homo sapiens, UniProt P09619).
T1 construct: Western blotting for phospho-PDGFRb, PDGFRb, and Actin in human A2.1 cells; endogenous in cells; host or cells: human A2.1 pancreatic cancer cell line (mutant p53 155P)
Kind of data set: Western blotting for phospho-PDGFRb in A2.1 cells. It counts as cell-based. Conditions: 0.3 μM. An excerpt:
FIG. 12D depicts Western blotting for phospho-PDGFRb, PDGFRb, and Actin in human A2.1 cells after treatment with DMSO or crenolanib at varying doses.
For orientation: A western blot detects proteins with antibodies after separation by electrophoresis.

Data set [2] concerns KPC cells. Description: Lung colonization assay after tail vein injection of drug-pretreated KPC cells. It counts as in vivo, mouse. An excerpt: FIG. 5E (left panel) are representative merged brightfield/GFP imaged of whole lung as well as H&E stains of representative sections of pulmonary lobes after tail vein injection of crenolanib- or DMSO-treated KPC cells into mice. FIG. 5E (right panel) is a graph of quantification of total number of lung metastatic nodules in individual mouse (at least six mice per each group). Data are represented as mean±SD.
FIG. 6B (left panel) are representative merged brightfield/GFP images of whole lung. FIG. 6B (middle panel) are H&E stainings of representative sections of pulmonary lobes. […] FIG. 6B (right panel) is a graph of quantification of total number of lung metastatic nodules in individual mouse (at least six mice per each group. Data are represented as mean±SD.
(§1) All animal experiments were performed in accordance with a protocol approved by the Memorial Sloan-Kettering Institutional Animal Care and Use Committee. For colonization studies, KPC cells (1×10^5) were resuspended in 200 μl PBS and injected intravenously into the tail vein of 8 week-old female athymic nude mice. Lungs were harvested 7 days post injection and analyzed for colonization by GFP positivity (Nikon SMZ1500) and histology.

The target in data set [3] is T2, PDGFRb (Mus musculus, UniProt P05622).
T2 construct: endogenous in cells; host or cells: murine KPC pancreatic cancer cell line (Kras G12D, p53 R172H, Pdx1-Cre)
T2 sequence (P05622 32-1098): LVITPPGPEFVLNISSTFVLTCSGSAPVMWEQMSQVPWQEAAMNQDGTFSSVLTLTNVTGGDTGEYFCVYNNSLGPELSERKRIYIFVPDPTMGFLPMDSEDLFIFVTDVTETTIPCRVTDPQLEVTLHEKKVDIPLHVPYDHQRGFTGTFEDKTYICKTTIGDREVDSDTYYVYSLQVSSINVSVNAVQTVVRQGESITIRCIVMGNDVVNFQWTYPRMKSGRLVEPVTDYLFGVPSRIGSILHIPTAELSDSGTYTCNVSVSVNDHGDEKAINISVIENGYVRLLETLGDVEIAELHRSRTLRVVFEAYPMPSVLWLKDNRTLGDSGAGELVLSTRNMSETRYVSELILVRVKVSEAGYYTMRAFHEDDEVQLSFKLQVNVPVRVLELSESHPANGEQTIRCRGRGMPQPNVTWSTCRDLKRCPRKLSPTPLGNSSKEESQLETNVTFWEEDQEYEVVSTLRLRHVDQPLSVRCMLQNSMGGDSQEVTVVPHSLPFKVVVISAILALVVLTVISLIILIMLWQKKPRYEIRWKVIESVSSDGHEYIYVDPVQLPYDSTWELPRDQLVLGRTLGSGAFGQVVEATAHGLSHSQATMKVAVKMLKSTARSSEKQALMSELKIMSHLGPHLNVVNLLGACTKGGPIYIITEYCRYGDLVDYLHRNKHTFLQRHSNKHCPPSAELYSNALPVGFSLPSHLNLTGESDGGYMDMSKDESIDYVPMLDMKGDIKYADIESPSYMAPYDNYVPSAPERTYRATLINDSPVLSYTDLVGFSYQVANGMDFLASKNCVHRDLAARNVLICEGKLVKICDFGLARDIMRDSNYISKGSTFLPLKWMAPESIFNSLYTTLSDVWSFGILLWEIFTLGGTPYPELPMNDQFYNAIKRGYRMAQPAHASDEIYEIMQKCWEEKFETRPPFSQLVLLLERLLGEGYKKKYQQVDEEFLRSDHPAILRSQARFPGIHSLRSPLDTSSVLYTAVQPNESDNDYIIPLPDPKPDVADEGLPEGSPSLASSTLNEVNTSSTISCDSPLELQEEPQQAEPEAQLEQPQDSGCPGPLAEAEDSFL
Kind of data set: PDGFRb phosphorylation in KPC cells (immunoprecipitation, phospho-Tyrosine western blot). Type of data set: cell-based. How it is done:
FIG. 5C depicts immunoprecipitation of PDGFRb from KPC cells starved for 12 hours, treated with either increasing doses of crenolanib or DMSO for 4 hours and subsequently stimulated with 50 ng/ml of PDGF-BB recombinant protein. Protein levels of PDGFRb, phospho-Tyrosine and Tubulin were determined by western blotting.
Protein levels of PDGFRb, phospho-Tyrosine and Tubulin were determined by western blotting.
FIG. 12E depicts immunoprecipitation of PDGFRb from KPC cells treated with DMSO or crenolanib (300 nM) for different time periods. The input protein levels for PDGFRb, phospho-Tyrosine, and Actin and those present in immunoprecipitates for phospho-Tyrosine were determined by western blotting.
To measure levels of endogenously phosphorylated PDGFRb, KPC cells were treated with the drug as described and harvested in phospho-lysis buffer (50 mM Tris pH 7.5, 1% Tween-20, 200 mM NaCl, 0.2% NP-40, phosphatase inhibitors [2.5 mM Sodium pyrophosphate, 1 mM β-Glycerophosphate, 1 mM Na3VO4], and protease inhibitors [Roche]).

The next data set concerns KPflC cells. Description: Lung colonization assay after tail vein injection of drug-pretreated KPflC cells. It counts as in vivo, mouse. Conditions: same concentration as for KPC cells. How it is done: FIG. 12G (left panel) depicts representative merged brightfield/GFP images of pulmonary lobes after tail vein injection of crenolanib- or DMSO-treated KPflC cells into mice. FIG. 12G (middle panel) depicts H&E stainings of representative sections of pulmonary lobes. FIG. 12G (right panel) is a graph of quantification of total number of lung metastatic nodules in individual mouse (at least six mice per each group). Data are represented as mean±SD.
as §1

In data set [4] the test system is KPC cells. Description: Three-dimensional collagen invasion assay, KPC cells.
Experimental: FIG. 5D (left panel) is a graph of quantification of invasion of murine KPC and human A2.1 treated with either DMSO or crenolanib at 300 nM. Values are means±SD of 9 replicates from one representative experiment.
In brief, 24-well transwell inserts (Greiner bio-one) were lined with collagen type 1 (BD Biosciences), and cells were seeded on the inverted inserts. The lower chambers were filled with medium containing 0.5% FBS and upper chambers containing the collagen matrix were filled with medium containing 20% FBS and the chemoattractant HGF.
Invasion assay inserts were fixed using 4% formaldehyde and stained using DAPI and Alexa568 phalloidin (Invitrogen) before confocal microscopy (Perkin Elmer Spinning Disk) was conducted. Images were analyzed using Imaris software.
Data set [5] has as its system murine KPC pancreatic cancer cells. Description: MTS assay of KPC cell viability/proliferation. Type of data set: cell-based, mouse. Here is the method:
(§2) FIG. 5B is a graph of MTS assay (E490) of murine KPC and human A2.1 cells treated with crenolanib with various doses for 72 hours. Normalized values are expressed as means±SD form quadruple replicates.
Normalized values are expressed as means±SD form quadruple replicates.
(§3) All cell lines were maintained in DMEM+10% FBS, at 37° C. in 5% CO2. Stable cell lines expressing shRNAs were generated by retroviral mediated gene transfer. Briefly, Phoenix or Ampho packaging cells (for murine or human cell lines, respectively) were transfected by the calcium phosphate method with vectors expressing NF-YA, NF-YB, p53, p73, PDGFRa, PDGFRb or Renilla-control shRNAs, and the generated viruses were harvested to infect KPC, KPflC, or a series of human pancreatic, breast, lung and colon cancer cell lines. Infected cells were selected with puromycin and experiments were carried out on derived cell populations. To generate cells stably expressing mutant p53, p73 or PDGFRb, KPflC cells were infected with MSCV-p53-R175H, -R273H, PDGFRb or pcDNA3-HA-p73α and selected in puromycin and G418 respectively to yield stable pools.

Another data set concerns A2.1 cells. Description: Three-dimensional collagen invasion assay, A2.1 cells. Type of data set: cell-based, human. As to conditions: 300 nM. Here is the method:
Images were analyzed using Imaris software.

For data set [6], the system named is KPC cells. Description: Propidium Iodide staining of KPC cells treated overnight. It counts as cell-based, mouse. Conditions: KPC cells pretreated overnight.
For data set [7], the system named is human A2.1 pancreatic cancer cells. Description: MTS assay of A2.1 cell viability. It counts as cell-based. How it is done: as §2, §3
In general terms: Tetrazolium dyes change colour on reduction, which living cells bring about.

The target of data set [8] is T2, PDGFRb. Kind of data set: phospho-PDGFRb in pancreatic tumors of treated KPC mice (immunofluorescence). Type of data set: in vivo. As to conditions: 50 mg/kg oral gavage twice daily.
Experimental: DAPI, blue; CK8, red and p-PDGFRb, green. […] 15 images were analyzed per tumor (n=7). Tissues were fixed overnight in formalin, embedded in paraffin, and cut into 5-μm thick sections. Sections were subjected to hematoxylin and eosin staining, and immunohistochemical and immunofluorescent staining following standard protocols. The following primary antibodies were used: mouse anti-GFP (Cell Signaling), rabbit anti-p-PDGFR-β ([MUT]) (Santa Cruz Biotechnology) and rat anti-CK8 (DSHB). […] Images were acquired using a Zeiss Axio Imager D1 scope.
In another data set the test system is KPC mice. Description: Treatment of KPC mice (PDAC mouse model): tumor, survival and metastasis. It counts as in vivo. An excerpt:
FIG. 6D is a graph of quantification of the number of mice with metastatic disease at the time of death. Values are percentages of the total number of mice in each cohort. Colored columns represent mice with metastases (METS) and white columns represent disease-free (DF) animals.
FIG. 6E is a graph of quantification of the number of mice with lung, lymph nodes or liver metastatic disease at the time of death. Values are percentages of the total number of mice in each cohort. Colored columns represent mice with metastases (METS) and white columns represent disease-free (DF) animals.
Strains were maintained on mixed background. […] Organs and tumors were removed and fixed in 10% buffered formalin and tumor and metastatic burden was assessed by gross pathology and histology.

[9] abbreviates: 50 mg/kg oral gavage twice daily.

Some results are limits rather than exact numbers.

In general, IC50 refers to the concentration at which inhibition is half-maximal.

T1 sequence (P09619 33-1106): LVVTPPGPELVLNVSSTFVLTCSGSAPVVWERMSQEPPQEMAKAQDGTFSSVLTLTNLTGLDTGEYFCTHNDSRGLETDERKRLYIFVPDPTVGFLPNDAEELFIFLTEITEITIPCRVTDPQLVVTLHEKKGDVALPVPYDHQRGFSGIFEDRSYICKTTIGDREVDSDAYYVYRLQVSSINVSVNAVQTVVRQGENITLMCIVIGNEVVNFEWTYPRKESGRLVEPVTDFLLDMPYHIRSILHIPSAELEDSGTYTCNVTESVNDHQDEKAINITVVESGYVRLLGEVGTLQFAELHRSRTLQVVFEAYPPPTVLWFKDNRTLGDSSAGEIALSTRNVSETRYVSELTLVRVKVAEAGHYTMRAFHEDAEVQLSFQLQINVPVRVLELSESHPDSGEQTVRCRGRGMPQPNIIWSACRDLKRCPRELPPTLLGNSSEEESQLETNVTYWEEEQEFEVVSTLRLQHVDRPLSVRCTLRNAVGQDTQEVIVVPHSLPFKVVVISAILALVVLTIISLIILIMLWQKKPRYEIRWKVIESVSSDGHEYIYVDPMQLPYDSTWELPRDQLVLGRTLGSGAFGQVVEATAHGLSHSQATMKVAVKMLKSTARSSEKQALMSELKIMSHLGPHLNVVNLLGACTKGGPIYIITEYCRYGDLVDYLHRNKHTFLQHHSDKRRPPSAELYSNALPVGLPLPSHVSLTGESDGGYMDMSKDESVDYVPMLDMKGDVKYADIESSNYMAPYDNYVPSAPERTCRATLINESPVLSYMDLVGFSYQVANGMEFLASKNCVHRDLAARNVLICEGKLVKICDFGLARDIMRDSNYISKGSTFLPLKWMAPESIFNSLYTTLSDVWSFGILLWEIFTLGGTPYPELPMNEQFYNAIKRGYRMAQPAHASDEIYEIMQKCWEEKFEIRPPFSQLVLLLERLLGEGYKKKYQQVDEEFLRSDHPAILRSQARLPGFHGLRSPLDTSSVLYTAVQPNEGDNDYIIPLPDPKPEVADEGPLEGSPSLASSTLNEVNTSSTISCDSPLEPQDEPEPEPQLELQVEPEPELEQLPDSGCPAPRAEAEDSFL

For `CC1(COc2ccc3c(c2)ncn3-c2ccc3cccc(N4CCC(N)CC4)c3n2)COC1` [crenolanib, Crenolanib], the “inhibition of PDGFRb activity, as measured by phospho-PDGFRb” value on PDGFRb [1] and against PDGFRb [3] (0.3 μM) was “Strong inhibition” in each case. Moreover, in the data set with KPC cells [2] (KPC cells pretreated overnight, injected intravenously), the “lung nodules compared to controls pre-treated with DMSO” value is recorded as “significantly fewer lung nodules”. Also, the “time of drug treatment to strong target inhibition” value on PDGFRb [3] (time course, 300 nM) is recorded as at most 10 min. Moreover, the “metastatic potential in lung colonization assay” value in the data set with KPflC cells is “did not reduce the metastatic potential”. In addition, the “invasion relative to cells treated with DMSO” value with KPC cells [4] (300 nM) and with A2.1 cells was “substantially reduced invasion” in each case. In addition, the toxicity result is given as “no toxicity was observed” in [5] (KPC cells, 0.3 μM) and “no toxicity was observed” in data set [7] (A2.1 cells, 0.3 μM). Besides, the IC50 came out at 13.1 µM in data set [5] (Mus musculus, Pancreatic cancer cell, murine KPC cells, MTS assay, 72 hours, read-out: IC50, inhibiting the viability) and 8.5 µM in data set [7] (Pancreatic cancer cell, human A2.1 cells, MTS assay, 72 hours, read-out: IC50, inhibiting the viability). The “viability of the injected cell population” value with KPC cells [6] is on record as “no effect on the viability”.

In the case of `Cc1ccc(NC(=O)c2ccc(CN3CCN(C)CC3)cc2)cc1Nc1nccc(-c2cccnc2)n1` [imatinib], the “potential to colonize the lungs of recipient athymic mice” value with KPC cells [2] (pre-treatment of KPC cells) is “decreased their potential to colonize the lungs”. Further, on PDGFRb [3] (3 uM), the PDGFRb tyrosine phosphorylation entry was “strongly reduced PDGFRb tyrosine phosphorylation”. Also, the “levels of phospho-PDGFRb in the tumor cells of primary tumors” value at PDGFRb [8] is given as “reduced levels of phospho-PDGFRb”. The “invasive potential in vitro” value in the data set with KPC cells [4] (3 μM vs DMSO) is “significantly reduced the invasive potential”. Besides, in the data set with KPC mice (setting [9]), the “anti-metastatic effect across organs (liver, lymph nodes and lung)” value is “anti-metastatic effect was observed”; the occurrence of metastasis entry is on record as “striking reduction in the occurrence of metastasis”. In addition, the overall survival result in the data set on KPC mice (50 mg/kg oral gavage twice daily from 8 weeks of age) was “no impact”. This compound also had an incidence of metastasis in the data set with KPC mice (50 mg/kg oral gavage twice daily, GFP fluorescence and histopathology, 92% in vehicle-treated animals) of 15%.
